Laboratory results published in patent US20050239805A1, “Mixtures of fused pyrimidinones and dinitrophenolic compounds useful for controlling powdery mildews” (priority 2002, published 2005).

What was measured:
[1] = tested on: Erysiphe graminis f. sp. tritici; assay: Test A: preventive spray on wheat seedlings, wheat powdery mildew disease control; type: in vivo, Erysiphe graminis f. sp. tritici (wheat seedlings); settings: average of three replicates
Description: The formulation containing a compound of component (1) is dissolved in water to form a stock solution. For testing component (1) individually the stock solution is diluted to the final desired concentration to form a test solution. For example, the compositions of component (1) (e.g., Compound 1 of Index Table A), either alone or in combination, are sprayed at 0.08 or 0.4 ppm to the point of run-off on the test plants, equivalent to a rate of 0.2 or 1 g/ha, respectively.
The commercially available formulation of component (2) (e.g. the Karathane® 19.5% wettable powder formulation of dinocap) is suspended in water to form a stock suspension. For testing component (2) individually the stock suspension is diluted to the final desired concentration to form a test suspension. For example, dinocap, either alone or in combination, is sprayed at 10, 40 or 200 ppm to the point of run-off on the test plants, equivalent to a rate of 25, 100 or 500 g/ha, respectively.
For testing combinations, the stock suspensions of the individual active ingredients prepared as above are then combined in the appropriate ratio, and diluted to the final desired concentration to form a test suspension.
The resulting test suspensions are then used in the following tests. Test suspensions are sprayed to the point of run-off on the test plants at the rates of active ingredient described below. The tests were replicated three times and the results reported as the average of the three replicates.
The test suspension was sprayed to the point of run-off on wheat seedlings. The following day the seedlings were inoculated with a spore dust of Erysiphe graminis f. sp. tritici, (the causal agent of wheat powdery mildew) and incubated in a growth chamber at 20° C. for 8 days, after which disease ratings were made.
Results for Test A are given in Table A. In the table, a rating of 100 indicates 100% disease control and a rating of 0 indicates no disease control (relative to the controls). Columns labeled Observed Disease Control indicates the average of three replications. Columns labeled Expected Disease Control indicate the expected value for each treatment mixture using the Colby equation.

Row | Molecule | Observed Disease Control ([1]; application rate 10 ppm, rated after 8 days) | Observed Disease Control ([1]; application rate 40 ppm, rated after 8 days) | Observed Disease Control ([1]; application rate 200 ppm, rated after 8 days) | melting point | Observed Disease Control ([1]; application rate 0.08 ppm, inoculated day after spray, rated after 8 days at 20° C.) | Observed Disease Control ([1]; application rate 0.4 ppm, rated after 8 days)
1 | 2,6-dinitro-4-octylphenyl crotonates and 2,4-dinitro-6-octylphenyl crotonates [Dinocap] | 45% | 76% | 98% | – | – | –
2 | CCCOc1nc2ccc(I)cc2c(=O)n1CCC [Compound 1, 6-iodo-3-propyl-2-propyloxy-4(3H)-quinazolinone] | – | – | – | 48 to 49 °C | 80% | 99%
